# Laboratory results reported in ChEMBL document CHEMBL1201862, “PubChem BioAssay data set” (2004).
#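 Where inhibition never reached the appropriate level, the endpoint shown equals the highest concentration tested. Otherwise, values were interpolated linearly from a five-concentration, 48-hour dose response in 96-well plates. GI50 is the concentration that inhibits growth by half.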 Active and inactive are the calls of the source. Rule as the data show it: active = GI50 up to about 1.1 µM and inactive = higher.
# Columns and labels:
# Assay in all cases: DTP human tumour cell line panel, 48 h
# [1] = system: 786-0
# [2] = system: A498
# [3] = system: EKVX
# [4] = system: HCC 2998
# [5] = system: HCT-116
# [6] = system: HT-29
# [7] = system: K562
# [8] = system: KM12
# [9] = system: M14
# [10] = system: MCF7
# [11] = system: NCI-H522
# [12] = system: OVCAR-8
# [13] = system: PC-3
# [14] = system: SF-295
# [15] = system: SK-MEL-28
# [16] = system: SK-MEL-2
# [17] = system: SK-OV-3
# [18] = system: SN12C
# [19] = system: SW-620
Structure (SMILES),GI50 [1],GI50 [2],GI50 [3],GI50 [4],GI50 [5],GI50 [6],GI50 [7],GI50 [8],GI50 [9],GI50 [10],GI50 [11],GI50 [12],GI50 [13],GI50 [14],GI50 [15],GI50 [16],GI50 [17],GI50 [18],GI50 [19]
Nc1cc2c3c(cccc3c1)NC2=O,> 100 µM (inactive),> 100 µM (inactive),20.9 µM (inactive),> 100 µM (inactive),> 100 µM (inactive),> 100 µM (inactive),> 100 µM (inactive),> 100 µM (inactive),34.6 µM (inactive),27.9 µM (inactive),3.64 µM (inactive),> 100 µM (inactive),> 100 µM (inactive),> 100 µM (inactive),> 100 µM (inactive),> 100 µM (inactive),94 µM (inactive),95.1 µM (inactive),82.4 µM (inactive)
O=C(O)c1ccc(C=C2Sc3ccccc3S2)cc1,98.2 µM (inactive),14.5 µM (inactive),45 µM (inactive),8.07 µM (inactive),48.1 µM (inactive),43.5 µM (inactive),70.5 µM (inactive),46.7 µM (inactive),44.8 µM (inactive),35 µM (inactive),26.1 µM (inactive),> 100 µM (inactive),50.7 µM (inactive),33.5 µM (inactive),,29.4 µM (inactive),86.9 µM (inactive),65.9 µM (inactive),> 100 µM (inactive)
CC(NC(=O)OCc1ccccc1)NC(=O)OC(C)(C)C (stereo unspecified),> 100 µM (inactive),> 100 µM (inactive),> 100 µM (inactive),> 100 µM (inactive),> 100 µM (inactive),> 100 µM (inactive),> 100 µM (inactive),> 100 µM (inactive),> 100 µM (inactive),> 100 µM (inactive),> 100 µM (inactive),> 100 µM (inactive),> 100 µM (inactive),> 100 µM (inactive),> 100 µM (inactive),> 100 µM (inactive),> 100 µM (inactive),> 100 µM (inactive),> 100 µM (inactive)
C/C(=N\NC(=S)Nc1ccc([N+](=O)[O-])cc1)c1nc2cccnc2[nH]1,0.748 µM (active),2.67 µM (inactive),0.227 µM (active),1.15 µM (inactive),0.515 µM (active),0.615 µM (active),1.55 µM (inactive),0.873 µM (active),1.26 µM (inactive),0.611 µM (active),1.06 µM (active),0.348 µM (active),1.24 µM (inactive),0.352 µM (active),0.698 µM (active),1.31 µM (inactive),1.16 µM (inactive),1.65 µM (inactive),0.906 µM (active)
CC(C)=C[C@@H]1O[C@H](O)[C@@H]([C@H]2CC[C@@]3(C)[C@@H]4CC[C@H]5C(C)(C)C(=O)CC[C@@]56C[C@@]46CC[C@]23C)[C@@H]1O,14.3 µM (inactive),18.3 µM (inactive),18.5 µM (inactive),18.6 µM (inactive),15.2 µM (inactive),11.8 µM (inactive),15.6 µM (inactive),18.1 µM (inactive),21 µM (inactive),4.14 µM (inactive),13.1 µM (inactive),15.4 µM (inactive),13 µM (inactive),16.1 µM (inactive),22.8 µM (inactive),20 µM (inactive),16.5 µM (inactive),19.3 µM (inactive),13.1 µM (inactive)
CC(=O)c1ccc(/N=N/N2CCCC2)cc1,> 100 µM (inactive),15.9 µM (inactive),> 100 µM (inactive),> 100 µM (inactive),> 100 µM (inactive),,> 100 µM (inactive),> 100 µM (inactive),> 100 µM (inactive),> 100 µM (inactive),> 100 µM (inactive),> 100 µM (inactive),> 100 µM (inactive),> 100 µM (inactive),,> 100 µM (inactive),> 100 µM (inactive),> 100 µM (inactive),> 100 µM (inactive)
COC12c3ccccc3-c3ccccc3C1[C@@H](C(=O)O)[C@H]2C(=O)O (stereo partly specified),> 10 µM (inactive),> 10 µM (inactive),> 10 µM (inactive),> 10 µM (inactive),,> 10 µM (inactive),> 10 µM (inactive),> 10 µM (inactive),> 10 µM (inactive),> 10 µM (inactive),> 10 µM (inactive),> 10 µM (inactive),> 10 µM (inactive),> 10 µM (inactive),> 10 µM (inactive),> 10 µM (inactive),> 10 µM (inactive),> 10 µM (inactive),> 10 µM (inactive)
COc1ccc2c(c1)/C(=C\c1cccc(/C=C3/C(=O)Nc4ccc(OC)cc43)n1)C(=O)N2,0.964 µM (active),2.94 µM (inactive),2.84 µM (inactive),0.933 µM (active),0.352 µM (active),,0.412 µM (active),1.78 µM (inactive),1.32 µM (inactive),0.466 µM (active),0.861 µM (active),1.17 µM (inactive),1.32 µM (inactive),2.47 µM (inactive),,3.01 µM (inactive),2.02 µM (inactive),0.757 µM (active),0.982 µM (active)
